How the values were obtained:
FBXW7/c-Jun interaction = assay: Immunoprecipitation, ubiquitination and FBXW7/c-Jun interaction; type: cell-based, human
Source text: To investigate whether the ubiquitination of c-Jun is suppressed through the inhibition of c-Jun and FBXW7 binding by DGG200064, c-Jun immunoprecipitation was done to observe protein–protein interaction (Figure 4). E3 ligase, such as FBXW7, binds the protein to the ubiquitin chain through covalent bonds and rapidly degrades the protein through 26S proteasome. When treated with MG132 as a proteasome inhibitor, the ubiquitination of c-Jun increased compared to both control HCT116 and DLD1 cells. In contrast, the c-Jun ubiquitination was inhibited by DGG200064. The binding between c-Jun and FBXW7 was reduced with DGG200064 treatment. The FBXW7 protein, also known as CDC4, is a component of the SCF complex ubiquitin ligase and is known as a modulator of several substrates including cyclin E, c-Myc, c-Jun, and Notch. To check the selectivity of DGG200064 towards FBXW7 substrates, the change of c-Jun, cyclin E, and c-Myc by DGG200064 was analyzed. […] Cyclin E immunoprecipitation was done to test whether the ubiquitination of cyclin E by FBXW7 is inhibited by DGG200064 in HCT116 (Figure S2b, Supplementary Materials). There were no changes in cyclin E ubiquitination with DGG200064 treatment.
To identified ubiquitination of c-Jun by DGG200064, HCT116 cells were treated with/without MG132 (10 μM) for 6h, DGG200064 (50 nM) for 18 h. The cell lysate was prepared using RIPA buffer for immunoprecipitation. Each lysate was mixed with antibodies (1 μg/mL) of c-Jun or MYC at 4 °C overnight in immunoprecipitation buffer containing 50 mM Tris-Cl,150 mM NaCl, 1 mM EDTA, 0.5% Triton X-100, pH 7.4, and reacted with 10 μL of protein A/G beads UltraLink Resin (50:50 resin: buffer slurry condition) (Peirce, #35133) for 2 h on RT for precipitation. After reaction and centrifugation at 3000 rpm for 3 min, the immunoprecipitated samples were washed with 500 μL of immunoprecipitation buffer by tapping and centrifuged. The washing was repeated five times before western blotting.

[1] = system: HCT116 mouse tumor models; assay: HCT116 xenograft mouse tumor model; type: in vivo, nude BALB/c mice; conditions: 6 days/week, 21 days
Procedure: We tested the inhibition effect by DGG200064 in the HCT116 mouse tumor models (Figure 6a). Cultured HCT116 cells were injected subcutaneously near the scapulae of 6-week-old female nude BALB/c mice. Oral administration of DGG200064 (60, 120 mg/kg) began when tumors reached a volume of 100 mm^3 and proceeded for 6 days/week. […] Mice were then injected intraperitoneally with BrdU and anesthetized 2 h later. They were then perfused with PBS and killed. To identify the level of c-Jun by DGG200064, HCT116 tumors harvested from mice were fixed and analyzed by immunohistochemical staining for Hematoxylin and c-Jun. […]
Xenografts were initiated in female Bagg and Albino (BALB)/c nude mice (6–8 weeks old; n = 18). […] The size of the primary tumors was measured every 2–3 days using calipers. Tumor volume was calculated using the formula, v = (A × B2)/2, where […] is the short diameter (mm). […]
The isolated tumors issued were then stained with antibodies against BrdU (1:700), c-Jun (1:50). […] Endogenous peroxidase activity was blocked with hydrogen peroxide, and background staining was blocked with V block solution, the primary antibodies were detected with horseradish […] (HRP)-conjugated polymer and developed with diaminobenzidine (DAB). […] Positively stained nuclei were counted, and the differences between the groups were analyzed using Student’s t-test, p values ≤0.05 were considered significant.

pKa determination = type: physicochemical
Source text: Table 4 Physicochemical Properties of the Lead Compounds 7c. | column: 7c

HCT116 cells = assay: FACS analysis of cell cycle distribution; type: cell-based, human; conditions: HCT116, different concentrations, 6 h
Procedure: Many anticancer drugs induce apoptosis through programmed signaling in tumor cells. To test whether the newly developed 4-phenyl-N-(thieno[2,3-b]pyrazin-3-yl)piperazine-1-carboxamide derivatives could induce apoptosis, we conducted a FACS analysis of HCT116 cells with the representative compound 7c or DGG200064. Cell cycle distribution of HCT116 cells was investigated with different concentrations of DGG200064 for 6 h. […] Additionally, DGG200064 was tested for induced G2/M arrest in the other types of colon cancer cells in concentrations of 50 nM for 6 h (Figure 2b).
A colon cancer cells were trypsinized and fixed in 70% (vol/vol) ethanol for DNA staining. For cell cycle analysis, fixed cells were washed with PBS and subsequently resuspended in Propidium Iodide (PI)/RNase staining solution (0.05 mg/mL PI, 0.1 mg/mL RNase A in PBS). FACS analysis was performed using FACSCanto II (BD Biosciences, San Jose, CA, USA).

Question: For COc1cc(OC)cc(N2CCN(C(=O)Nc3nc4sccc4nc3OC)CC2)c1 [Compound 7c, 4-(3,5-Dimethoxyphenyl)-N-(2-methoxythieno[2,3-b]pyrazin-3-yl)piperazine-1-carboxamide], which “cyclin E ubiquitination” value (FBXW7/c-Jun interaction; HCT116, cyclin E immunoprecipitation) is on record?
Answer: no changes

Question: What about the “binding between c-Jun and FBXW7” value (FBXW7/c-Jun interaction; HCT116 and DLD1, 50 nM, 18 h, c-Jun immunoprecipitation) of the same compound?
Answer: reduced

Question: And the c-Jun ubiquitination (FBXW7/c-Jun interaction; HCT116 and DLD1, DGG200064 50 nM 18 h, MG132 10 μM 6 h)?
Answer: inhibited

Question: What about the “c-Jun expression increase in tumors compared to the control group (IHC)” value ([1]; 60 mg/kg oral) of the same compound?
Answer: 1.2 fold

Question: And the “c-Jun expression increase in tumors compared to the control group (IHC)” value ([1]; 120 mg/kg oral)?
Answer: 2 fold

Question: What about the pKa (pKa determination; first of two values) of the same compound?
Answer: 2.39

Question: And the pKa (pKa determination; second of two values)?
Answer: 11.6

Question: And the G2/M arrest (HCT116 cells)?
Answer: induced G/2M arrest in a dose-dependent manner

Question: And the apoptosis (HCT116 cells)?
Answer: did not cause apoptosis
